Measurements published in US6660752B2, “2,6-Substituted chroman derivatives useful as beta-3 adrenoreceptor agonists” (Bayer Pharmaceuticals Corporation, priority 2001, dated 2003).
Counter-ions that a name gives are not always drawn.

What follows are compounds tested against T1, human beta-3-adrenergic receptor (Homo sapiens, UniProt P13945) (assay: cAMP production (beta-3 agonist activity) in CHO cells stably expressing human beta-3-adrenergic receptor, cAMP SPA). Conditions: CHO cells expressing full-length human beta-3-adrenergic receptor, 30 min incubation, 10 μM to 3 nM, read-out: Beta-3 Agonistic Activity: Compounds with EC50 values >1 μM.
T1 construct: stably express full-length human beta-3-adrenergic receptor; expressed in transfected cells; host or cells: Chinese hamster ovary (CHO) cells
T1 sequence (P13945 whole entry): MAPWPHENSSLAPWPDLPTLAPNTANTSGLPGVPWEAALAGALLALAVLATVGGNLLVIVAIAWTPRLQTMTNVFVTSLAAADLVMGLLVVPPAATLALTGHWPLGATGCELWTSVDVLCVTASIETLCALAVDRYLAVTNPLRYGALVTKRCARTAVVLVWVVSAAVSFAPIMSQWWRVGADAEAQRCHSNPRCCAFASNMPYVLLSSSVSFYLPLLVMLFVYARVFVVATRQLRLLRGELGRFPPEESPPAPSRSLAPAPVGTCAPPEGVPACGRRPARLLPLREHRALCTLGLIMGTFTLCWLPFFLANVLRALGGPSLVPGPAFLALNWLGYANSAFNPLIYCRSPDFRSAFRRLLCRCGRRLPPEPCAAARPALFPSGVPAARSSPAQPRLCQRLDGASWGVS
Assay type: cell-based
Description: Chinese hamster ovary (CHO) cells that stably express full-length human beta-3-adrenergic receptor (Granneman et al., Mol. Pharmacol. 44:264-270, 1993) can be used in the following procedure. The cell line is grown in 90% F12 nutrient mixture (HAM), 10% fetal bovine serum, 100 units/ml penicillin G sodium, […] streptomycin sulfate, and 2 mM L-glutamine at 37° C. in 95% air and 5% CO2. The transfected cell line is maintained with G-418 (800 μg/ml).
To test the agonist activity, cells are exposed to test compound and then assayed for cAMP production. CHO cells (100 μl) are plated at 5×10^4 cells/well of a 96-well plate (Costar, Cambridge, Mass.) to achieve 70% confluency the next day. After overnight incubation at 37° C., media is removed and the cells are treated for 30 minutes at 37° C. with KRP buffer (120 mM NaCl, 5.1 mM KCl, 0.6 mM MgSO4.7H2O, 0.8 mM CaCl2.H2O, […] phosphate buffer, […] Hepes pH 7.4)+[…] IBMX ([…]), +1% DMSO, +/− test compounds ([…]). Test compounds are assayed from 10 μM to 3 nM with 3-fold serial dilutions. The control agonist, isoproterenol (10 mM stock in 1.1 mM ascorbate), is assayed by 3-fold dilution beginning at 1 μM. After a 30-minute incubation with the test compounds, the buffer/compound mixture is removed. The cells are lysed and cAMP levels are measured using the cAMP SPA screening assay system (Amersham, Arlington Heights, Ill.). The cAMP values are then plotted to determine the EC50 of each compound tested.
An EC50 greater than 1000 nM was found for `Nc1ccc([C@@H](O)CNC[C@H]2CCc3cc(C(=O)N(CC(=O)O)Cc4ccccn4)ccc3O2)cn1` [Example 365] in this work.
An EC50 greater than 1000 nM was found for `O=[N+]([O-])c1cccc(-c2ccc3c(c2)CC[C@H](CNC[C@H](O)c2cccnc2)O3)c1` [Example 42] in this work.

Same assay, conditions: CHO cells expressing full-length human beta-3-adrenergic receptor, 30 min incubation, 10 μM to 3 nM, read-out: Beta-3 Agonistic Activity: Compounds with EC50 values ≦1 μM
An EC50 of no more than 1000 nM was found for `COc1ccc(C(=O)NS(=O)(=O)c2ccc(-c3ccc4c(c3)CC[C@H](CNC[C@H](O)c3cccnc3)O4)cc2)cc1` [Example 300, 4-[(2R)-2-({[(2R)-2-hydroxy-2-(3-pyridinyl)ethyl]amino}methyl)-3,4-dihydro-2H-chromen-6-yl]-N-(4-methoxybenzoyl)benzenesulfonamide] in this work.
An EC50 of no more than 1000 nM was found for `O=C(Nc1ccc(Cl)cc1)NS(=O)(=O)c1cccc(-c2ccc3c(c2)CC[C@H](CNC[C@H](O)c2cccnc2)O3)c1` [Example 335] in this work.
An EC50 of no more than 1000 nM was found for `COc1cc(C)nc(NS(=O)(=O)c2ccc(-c3ccc4c(c3)CC[C@H](CNC[C@H](O)c3cccnc3)O4)cc2)n1` [Example 273, 4-[(2R)-2-({[(2R)-2-hydroxy-2-(3-pyridinyl)ethyl]amino}methyl)-3,4-dihydro-2H-chromen-6-yl]-N-(4-methoxy-6-methyl-2-pyrimidinyl)benzenesulfonamide] in this work.
An EC50 of no more than 1000 nM was found for `COCC(=O)NS(=O)(=O)c1ccc(-c2ccc3c(c2)CC[C@H](CNC[C@H](O)c2cccnc2)O3)cc1` [Example 291] in this work.
An EC50 of no more than 1000 nM was found for `O=C(NS(=O)(=O)c1ccc(-c2ccc3c(c2)CC[C@H](CNC[C@H](O)c2cccnc2)O3)cc1)c1ccc(F)cc1` [Example 295, N-(4-fluorobenzoyl)-4-[(2R)-2-({[(2R)-2-hydroxy-2-(3-pyridinyl)ethyl]amino}methyl)-3,4-dihydro-2H-chromen-6-yl]benzenesulfonamide] in this work.
An EC50 of no more than 1000 nM was found for `COc1ccc(C(=O)NS(=O)(=O)c2cccc(-c3ccc4c(c3)CCC(CNC[C@H](O)c3cccnc3)O4)c2)cc1` (some centres unmarked) [Example 303] in this work.
An EC50 of no more than 1000 nM was found for `COc1cc(OC)nc(NS(=O)(=O)c2cc(-c3ccc4c(c3)CC[C@H](CNC[C@H](O)c3cccnc3)O4)ccc2OC)n1` [Example 270] in this work.
An EC50 of no more than 1000 nM was found for `COc1cc(C)nc(NS(=O)(=O)c2cc(-c3ccc4c(c3)CC[C@H](CNC[C@H](O)c3cccnc3)O4)ccc2OC)n1` [Example 271] in this work.
An EC50 of no more than 1000 nM was found for `CCC(CC)C(=O)NS(=O)(=O)c1ccc(-c2ccc3c(c2)CC[C@H](CNC[C@H](O)c2cccnc2)O3)cc1` [Example 289] in this work.
An EC50 of no more than 1000 nM was found for `O=C(O)c1ccc(-c2ccc3c(c2)CC[C@H](CNC[C@H](O)c2cccnc2)O3)cc1Oc1ccc(F)cc1` [Example 193, 2-(4-fluorophenoxy)-4-[(2R)-2-({[(2R)-2-hydroxy-2-(3-pyridinyl)ethyl]amino}methyl)-3,4-dihydro-2H-chromen-6-yl]benzoic acid] in this work.
An EC50 of no more than 1000 nM was found for `COc1cc(C)nc(NS(=O)(=O)c2ccc(-c3ccc4c(c3)CC[C@H](CNC[C@H](O)c3cccnc3)O4)cc2OC(F)(F)F)n1` [Example 275, 4-[(2R)-2-({[(2R)-2-hydroxy-2-(3-pyridinyl)ethyl]amino}methyl)-3,4-dihydro-2H-chromen-6-yl]-N-(4-methoxy-6-methyl-2-pyrimidinyl)-2-(trifluoromethoxy)benzenesulfonamide] in this work.
An EC50 of no more than 1000 nM was found for `O=C(O)c1ccc(-c2ccc3c(c2)CC[C@H](CNC[C@H](O)c2cccnc2)O3)cc1Oc1ccc(Cl)cc1` [Example 194, 2-(4-chlorophenoxy)-4-[(2R)-2-({[(2R)-2-hydroxy-2-(3-pyridinyl)ethyl]amino}methyl)-3,4-dihydro-2H-chromen-6-yl]benzoic acid] in this work.
An EC50 of no more than 1000 nM was found for `CC(C)(C)CC(=O)NS(=O)(=O)c1ccc(-c2ccc3c(c2)CC[C@H](CNC[C@H](O)c2cccnc2)O3)cc1` [Example 287, N-(3,3-dimethylbutanoyl)-4-[(2R)-2-({[(2R)-2-hydroxy-2-(3-pyridinyl)ethyl]amino}methyl)-3,4-dihydro-2H-chromen-6-yl]benzenesulfonamide] in this work.
An EC50 of no more than 1000 nM was found for `COc1ccc(-c2ccc3c(c2)CC[C@H](CNC[C@H](O)c2cccnc2)O3)cc1S(=O)(=O)Nc1ncccn1` [Example 272] in this work.
An EC50 of no more than 1000 nM was found for `COCCOc1cc(-c2ccc3c(c2)CC[C@H](CNC[C@H](O)c2cccnc2)O3)ccc1C(=O)O` [Example 187, 4-[(2R)-2-({[(2R)-2-hydroxy-2-(3-pyridinyl)ethyl]amino}methyl)-3,4-dihydro-2H-chromen-6-yl]-2-(2-methoxyethoxy)benzoic acid] in this work.
An EC50 of no more than 1000 nM was found for `CC(=O)c1ccc(NS(=O)(=O)c2ccc(-c3ccc4c(c3)CC[C@H](CNC[C@H](O)c3cccnc3)O4)cc2)cc1` [Example 264] in this work.
An EC50 of no more than 1000 nM was found for `O=C1CCc2cc(NS(=O)(=O)c3cccc(-c4ccc5c(c4)CC[C@H](CNC[C@H](O)c4cccnc4)O5)c3)ccc21` [Example 255] in this work.
An EC50 of no more than 1000 nM was found for `O=S(=O)(Nc1cccnc1)c1cccc(-c2ccc3c(c2)CC[C@H](CNC[C@H](O)c2cccnc2)O3)c1` [Example 260] in this work.
An EC50 of no more than 1000 nM was found for `O[C@@H](CNC[C@H]1CCc2cc(-c3ccccc3C(F)(F)F)ccc2O1)c1cccnc1` [Example 40] in this work.
An EC50 of no more than 1000 nM was found for `CCOc1cc(-c2ccc3c(c2)CC[C@H](CNC[C@H](O)c2cccnc2)O3)ccc1C(=O)O` [Example 185, 2-ethoxy-4-[(2R)-2-({[(2R)-2-hydroxy-2-(3-pyridinyl)ethyl]amino}methyl)-3,4-dihydro-2H-chromen-6-yl]benzoic acid] in this work.
An EC50 of no more than 1000 nM was found for `O=C(O)c1cccc(CCc2ccc3c(c2)CCC(CNC[C@H](O)c2cccnc2)O3)c1` (stereo in doubt) [Example 216, 3-{2-[(2S)-2-({[(2R)-2-hydroxy-2-(3-pyridinyl)ethyl]amino}methyl)-3,4-dihydro-2H-chromen-6-yl]ethyl}benzoic Acid] in this work.
An EC50 of no more than 1000 nM was found for `COc1ccc(-c2ccc3c(c2)CCC(CNC[C@H](O)c2cccnc2)O3)cc1S(=O)(=O)Nc1ccc(C#N)cc1` (some centres unmarked) [Example 277] in this work.
An EC50 of no more than 1000 nM was found for `O=S(=O)(Nc1ncccn1)c1ccc(-c2ccc3c(c2)CC[C@@H](CNCC(O)c2cccnc2)O3)cc1` (stereo partly drawn) [Example 249B, 4-[(2S)-2-({[-2-hydroxy-2-(3-pyridinyl)ethyl]amino}methyl)-3,4-dihydro-2H-chromen-6-yl]-N-(2-pyrimidinyl)benzenesulfonamide] in this work.
An EC50 of no more than 1000 nM was found for `CC(C)(C)C(=O)NS(=O)(=O)c1ccc(-c2ccc3c(c2)CC[C@H](CNC[C@H](O)c2cccnc2)O3)cc1` [Example 292, N-(2,2-dimethylpropanoyl)-4-[(2R)-2-({[(2R)-2-hydroxy-2-(3-pyridinyl)ethyl]amino}methyl)-3,4-dihydro-2H-chromen-6-yl]benzenesulfonamide] in this work.
An EC50 of no more than 1000 nM was found for `O=C(O)c1ccc(-c2ccc3c(c2)CC[C@H](CNC[C@@H](O)c2cccc(Cl)c2F)O3)cc1` [Example 352] in this work.
An EC50 of no more than 1000 nM was found for `CN1C(=O)c2ccc(NS(=O)(=O)c3cccc(-c4ccc5c(c4)CC[C@H](CNC[C@H](O)c4cccnc4)O5)c3)cc2C1=O` [Example 252] in this work.
An EC50 of no more than 1000 nM was found for `O=C(O)c1ccc(-c2ccc3c(c2)CC[C@H](CNC[C@H](O)c2cccc(Cl)c2)O3)cc1` [Example 344, 4-[(2R)-2-({[(2R)-2-(3-chlorophenyl)-2-hydroxyethyl]amino}methyl)-3,4-dihydro-2H-chromen-6-yl]benzoic acid] in this work.
An EC50 of no more than 1000 nM was found for `COc1ccc(-c2ccc3c(c2)CC[C@H](CNC[C@H](O)c2cccnc2)O3)cc1S(=O)(=O)Nc1nccs1` [Example 266] in this work.
An EC50 of no more than 1000 nM was found for `COc1cccc(C(=O)NS(=O)(=O)c2cccc(-c3ccc4c(c3)CC[C@H](CNC[C@H](O)c3cccnc3)O4)c2)c1` [Example 298] in this work.
An EC50 of no more than 1000 nM was found for `O=C(Nc1ccccc1)NS(=O)(=O)c1ccc(-c2ccc3c(c2)CC[C@H](CNC[C@H](O)c2cccnc2)O3)cc1` [Example 328, 3-[(1R)-2-({[(2R)-6-(4-{[(anilinocarbonyl)amino]sulfonyl}phenyl)-3,4-dihydro-2H-chromen-2-yl]methyl}amino)-1-hydroxyethyl]pyridine] in this work.
An EC50 of no more than 1000 nM was found for `O=C(Nc1cccc(C(F)(F)F)c1)NS(=O)(=O)c1cccc(-c2ccc3c(c2)CC[C@H](CNC[C@H](O)c2cccnc2)O3)c1` [Example 337] in this work.
An EC50 of no more than 1000 nM was found for `CS(=O)(=O)c1ccc(Oc2cc(-c3ccc4c(c3)CC[C@H](CNC[C@H](O)c3cccnc3)O4)ccc2C(=O)O)cc1` [Example 198, 4-[(2R)-2-({[(2R)-2-hydroxy-2-(3-pyridinyl)ethyl]amino}methyl)-3,4-dihydro-2H-chromen-6-yl]-2-[4-(methylsulfonyl)phenoxy]benzoic acid] in this work.
An EC50 of no more than 1000 nM was found for `O=S(=O)(Nc1ccc(-c2ccc3c(c2)CC[C@H](CNC[C@H](O)c2cccnc2)O3)nc1)c1ccccc1` [Example 319, N-{6-[(2R)-2-({[(2R)-2-hydroxy-2-(3-pyridinyl)ethyl]amino}methyl)-3,4-dihydro-2H-chromen-6-yl]-3-pyridinyl}benzenesulfonamide Trihydrochloride] in this work.
